Results as given in PubChem BioAssay (NCI).
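Briefly, cells in 96-well plates were exposed to five compound concentrations for 48 h, and endpoints were estimated by linear interpolation. At the GI50, growth is halved. TGI: concentration producing complete growth inhibition.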

Experiments:
Assay in all cases: NCI-60 cell line screen, 48 h
CCRF-CEM leukemia = system: CCRF-CEM leukemia
COLO 205 colon = system: COLO 205 colon
HT29 colon = system: HT29 colon
K-562 leukemia = system: K-562 leukemia
MCF7 breast = system: MCF7 breast
NCI-H522 lung = system: NCI-H522 lung
NCI/ADR-RES ovarian = system: NCI/ADR-RES ovarian
OVCAR-8 ovarian = system: OVCAR-8 ovarian
SK-MEL-2 melanoma = system: SK-MEL-2 melanoma
UO-31 renal = system: UO-31 renal

Compound | TGI (CCRF-CEM leukemia) [µM] | TGI (COLO 205 colon) [µM] | TGI (HT29 colon) [µM] | TGI (K-562 leukemia) [µM] | TGI (MCF7 breast) [µM] | TGI (NCI-H522 lung) [µM] | TGI (NCI/ADR-RES ovarian) [µM] | TGI (OVCAR-8 ovarian) [µM] | TGI (SK-MEL-2 melanoma) [µM] | TGI (UO-31 renal) [µM] | GI50 (CCRF-CEM leukemia) [µM] | GI50 (COLO 205 colon) [µM] | GI50 (HT29 colon) [µM] | GI50 (K-562 leukemia) [µM] | GI50 (MCF7 breast) [µM] | GI50 (NCI-H522 lung) [µM] | GI50 (NCI/ADR-RES ovarian) [µM] | GI50 (OVCAR-8 ovarian) [µM] | GI50 (SK-MEL-2 melanoma) [µM] | GI50 (UO-31 renal) [µM]
O=C(NC(Cc1ccc(I)cc1)C(=O)O)c1ccc(Br)cc1 (stereo not given) | > 100 | > 100 | > 100 | > 100 | > 100 | > 100 | > 100 | > 100 | > 100 | > 100 | – | – | – | – | – | – | – | – | – | –
COc1ccc(/C(Cl)=C(\C=O)c2ccc(F)cc2)cc1OC | 48.6 | 36.8 | 36.3 | 73.5 | – | 46.5 | – | > 100 | 39.4 | 61.1 | – | – | – | – | – | – | – | – | – | –
Cc1[nH]c(=O)[nH]c(=O)c1/C=C/C(=O)O | > 1000 | > 1000 | > 1000 | > 1000 | > 1000 | > 1000 | > 1000 | > 1000 | > 1000 | > 1000 | – | – | – | – | – | – | – | – | – | –
C[C@]12CCc3nc(Nc4ccccc4)sc3C1=CC[C@@H]1[C@@H]2CC[C@]2(C)/C(=N/NC(N)=S)CC[C@@H]12 | > 100 | > 100 | > 100 | > 100 | > 100 | > 100 | > 100 | > 100 | > 100 | > 100 | 1.98 | 4.49 | 2.23 | 1.97 | 1.08 | 3.07 | 4.01 | 3.32 | 5.89 | 3.71
COc1ccc2nc3ccccc3c(NCCCCCCN(CCCl)CCCl)c2c1 | – | 0.107 | 1.28 | > 18.5 | 0.157 | – | – | – | – | 0.513 | – | – | – | – | – | – | – | – | – | –
COc1cc(Nc2c3ccccc3nc3ccccc23)ccc1NS(C)(=O)=O | > 100 | 16.1 | – | > 100 | – | 12.9 | – | 17.2 | 23.6 | 16.9 | – | – | – | – | – | – | – | – | – | –
Cc1ccc(S(=O)(=O)OCC(=O)O)cc1 | > 100 | – | > 100 | > 100 | – | > 100 | > 100 | > 100 | > 100 | > 100 | – | – | – | – | – | – | – | – | – | –
COC(=O)C1=C(C(=O)OC)SC2(S1)C1=C(CCCC1)SC(C(=O)OC)=C2C(=O)OC | 8.16 | 23.2 | 11.7 | 21.5 | 8.43 | 4.36 | 40.9 | 17.3 | 30 | 10.9 | – | – | – | – | – | – | – | – | – | –
Nc1ccc2[nH]c3c(-c4ccccc4)nccc3c2c1 | > 100 | > 100 | > 100 | > 100 | > 100 | > 100 | > 100 | > 100 | > 100 | > 100 | – | – | – | – | – | – | – | – | – | –
N=C(N)c1ccc(N=Nc2c(O)ccc3c2[nH]c2ccccc23)cc1 | – | > 100 | > 100 | 4.02 | – | > 100 | > 100 | – | > 100 | > 90.9 | – | – | – | – | – | – | – | – | – | –
